Measured values: US6552088B2, “Biphenyl derivatives” (Hoffmann-La Roche Inc., priority 1999, dated 2003)

Experiments:
human NK-1 receptor = target: T1, human NK-1 receptor (Homo sapiens, UniProt P25103); experiment: Affinity for the NK-1 receptor, [3H] substance P displacement binding assay; conditions: human NK-1 receptors in CHO cells (Semliki virus expression system); [3H] substance P 0.6 nM; 60 min at room temperature; read-out: affinity to the NK-1 receptor, given as pKi (converted)
T1 construct: expressed in transfected cells; host or cells: CHO cells infected using the Semliki virus expression system; membrane suspension
T1 sequence (P25103 whole entry): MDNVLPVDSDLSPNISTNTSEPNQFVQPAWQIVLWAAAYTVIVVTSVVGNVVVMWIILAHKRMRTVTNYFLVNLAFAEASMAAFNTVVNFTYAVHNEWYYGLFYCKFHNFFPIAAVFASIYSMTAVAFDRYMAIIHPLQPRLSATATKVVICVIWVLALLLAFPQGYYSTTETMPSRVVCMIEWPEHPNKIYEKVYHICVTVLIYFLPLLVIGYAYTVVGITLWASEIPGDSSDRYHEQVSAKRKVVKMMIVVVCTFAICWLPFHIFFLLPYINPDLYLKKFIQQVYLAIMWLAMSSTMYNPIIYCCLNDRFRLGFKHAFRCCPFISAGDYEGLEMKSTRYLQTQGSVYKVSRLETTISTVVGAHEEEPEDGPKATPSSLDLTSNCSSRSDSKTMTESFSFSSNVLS
Method: The affinity of test compounds for the NK-1 receptor was evaluated at human NK-1 receptors in CHO cells infected with the human NK-1 receptor (using the Semliki virus expression system) and radiolabelled with [3H] substance P (final concentration 0.6 nM). Binding assays were performed in HEPES buffer (50 mM, pH 7.4) containing BSA (0.04%) leupeptin (8 μg/ml), MnCl2 (3 mM) and phosphoramidon (2 μM). Binding assays consisted of 250 μl of membrane suspension (1.25×10^5 cells/assay tube), […] of buffer of displacing agent and 125 μl of [3H] substance P. Displacement curves were determined with at least seven concentrations of the compound. The assay tubes were incubated for 60 min at room temperature after which time the tube contents were rapidly filtered under vacuum through GF/C filters presoaked for 60 min with PEI (0.3%) with 2×2 ml washed of HEPES buffer (50 mM, pH 7.4). The radioactivity retained on the filters was measured by scintillation counting. All assays were performed in triplicate in at least 2 separate experiments.

Row | Ki (human NK-1 receptor) [nM] | melting point [°C] | Compound
1 | 5.25 | – | Cc1ccccc1-c1ccc(N)cc1N(C)C(=O)C(C)(C)c1cc(C(F)(F)F)cc(C(F)(F)F)c1 [Example 18, N-(4-Amino-2′-methyl-biphenyl-2-yl)-2-(3,5-bis-trifluoromethyl-phenyl)-N-methyl-isobutyramide]
2 | 9.77 | – | CNc1ccc(-c2ccccc2C)c(N(C)C(=O)C(C)(C)c2cc(C(F)(F)F)cc(C(F)(F)F)c2)c1 [Example 20, 2-(3,5-Bis-trifluoromethyl-phenyl)-N-methyl-N-(2′-methyl-4-methylamino-biphenyl-2-yl)-isobutyramide]
3 | – | 126.7 to 127.1 | Cc1cc(CN(C)C(=O)c2ccccc2-c2ccccc2)cc(C(F)(F)F)c1 [Example 3, Biphenyl-2-carboxylic acid methyl-(3-methyl-5-trifluoromethyl-benzyl)-amide]
4 | – | 126 to 128 | CN(Cc1cc(Cl)cc(Cl)c1)C(=O)c1ccccc1-c1ccccc1 [Example 2, Biphenyl-2-carboxylic acid (3,5-dichloro-benzyl)-methyl-amide]
5 | 1.45 | – | Cc1ccccc1-c1cc(N2CCN(C)CC2)ccc1C(=O)N(C)Cc1cc(C(F)(F)F)cc(C(F)(F)F)c1 [Example 27, 2′-Methyl-5-(4-methyl-piperazin-1-yl)-biphenyl-2-carboxylic acid (3,5-bis-trifluoromethyl-benzyl)-methyl-amide]
